These results are taken from US10080714B2, “Peptides and their use in the treatment of hair” (Avon Products, Inc., priority 2015, dated 2018).

What all share (type): cell-based, human
Assay [1] has as its system Hair Germinal Matrix Cells. Briefly: Proliferation of hair matrix cells (BrdU proliferation kit). The note with it: for Proliferation (%): 24 h treatment, percent change in cell proliferation relative to vehicle control; for Effect on Hair Germinal Matrix Cell proliferation (in words): at the concentrations tested. On the procedure: Hair Germinal Matrix Cells (ScienCell, Carlsbad, Calif.) were grown in 96-well tissue culture plate (5000 cells/well) in MSCM medium supplemented with growth factors (ScienCell, Carlsbad, Calif.). Cells were incubated overnight at 37° C. and 5% CO2. Next, media were aspirated and cells were incubated in MSCM medium without growth supplement for 4-6 h, followed by treatment with given concentration of peptides for 24 h. After treatment cells were incubated with BrdU for 4 h and proliferation rate was evaluating using BrdU proliferation kit from Cell Signaling (Danvers, Mass.). The results are summarized in Table 2 below as percent change cell proliferation relative to vehicle control (peptide concentrations provided in parentheses) using the following key: 0: <10%, +:11-20%, ++:21-40%, +++:41-60%, ++++:>60%.

The subject of a further assay is KAP8. As to the kind of experiment: KAP8 mRNA expression in Hair Germinal Matrix Cells (qPCR). The note with it: for KAP 8 mRNA expression: 0.0001 wt. % peptide, 48 h, percent change in mRNA expression relative to vehicle control, normalized to GAPDH; for Effect on Keratin Associated Protein 8 mRNA expression (in words): at the concentration tested. On the procedure: (§1) Hair Germinal Matrix Cells (ScienCell, Carlsbad, Calif.) were grown in 6-well tissue culture plate (1.5×10^5 cells/well) in MSCM medium supplemented with growth factors (ScienCell, Carlsbad, Calif.). Cells were incubated overnight at 37° C. and 5% CO2. Next day, cells were changed into fresh media and treated with given concentration of peptides for 48 h. After treatment, cells were washed with ice cold PBS, collected into RLT lysis buffer and RNA was extracted using RNeasy Mini Kit (Qiagen, Valencia, Calif.) following manufactures recommendations. 200 ng of RNA was used for cDNA synthesis using High Capactiy cDNA Reverse Transcription Kit (Life Technologies, Carlsbad, Calif.). 1 μL of undiluted cDNA was used per qPCR reaction. Primers used were purchased from Life technologies (Carlsbad, Calif.). Following primers were used: Keratin35 (Hs0060557_g1), KAP8 (Hs00545666_s1), KAP11 (Hs00545667_s1), P-cadherin (Hs00999925_m1). Expression was normalized to GAPDH. The conditions of q-PCR were: an incubation step at 50° C. for 2 minutes and an enzyme activation step at 95° C. for 10minutes; followed by 45 cycles of 95° C. for 30 seconds and 60° C. for 1 minute. CT value was obtained from the software of the Stratagene MX2005P.

A further assay has as its system P-cadherin. As to the kind of experiment: P-cadherin mRNA expression in Hair Germinal Matrix Cells (qPCR). The conditions noted are these: for P-cadherin mRNA expression: 0.0001 wt. % peptide, 48 h, percent change in mRNA expression relative to vehicle control, normalized to GAPDH; for Effect on levels of desmosomal protein P-cadherin (in words): at the concentration tested. On the procedure:
as §1

In the next assay the test system is Keratin35. As to the kind of experiment: Keratin 35 mRNA expression in Hair Germinal Matrix Cells (qPCR). The conditions noted are these: for Keratin 35 mRNA expression: 0.0001 wt. % peptide, 48 h, percent change in mRNA expression relative to vehicle control, normalized to GAPDH; for Effect on Keratin 35 mRNA expression (in words): at the concentration tested. On the procedure: as §1

In a further assay the test system is KAP11. As to the kind of experiment: KAP11 mRNA expression in Hair Germinal Matrix Cells (qPCR). The conditions noted are these: for KAP 11 mRNA expression: 0.0001 wt. % peptide, 48 h, percent change in mRNA expression relative to vehicle control, normalized to GAPDH; for Effect on KAP11 mRNA expression (in words): at the concentration tested. On the procedure: as §1
A general note: Real-time PCR tracks product formation cycle by cycle.

Square brackets hold non-standard residues; d marks the D form. Ends that are not written are not given here. Ava = NCCCCC(=O)O

Consider “K-Ava-YNTK: K-Ava-derivative of tripeptide YNT; Ava = amino valeric acid (K[Ava]YNTK)”, for which the “Proliferation (%)” value in assay [1] (0.00001 wt. % peptide) is reported as 0 (0: <10%). In assay [1] (0.0001 wt. % peptide), the “Proliferation (%)” value is given as 0 (0: <10%). In the assay on KAP8, the “KAP 8 mRNA expression” value is 0 (0; <10%) and the “Effect on Keratin Associated Protein 8 mRNA expression (in words)” value is “not effective”. Further, in the assay with P-cadherin, the “P-cadherin mRNA expression” value was “+++ (+++: 41-60%)” and the “Effect on levels of desmosomal protein P-cadherin (in words)” value is “effect was enhanced”. For the same substance, in the assay on Keratin35, the “Keratin 35 mRNA expression” value was 0 (0; <10%) and the “Effect on Keratin 35 mRNA expression (in words)” value was “not effective”. Besides, in the assay on KAP11, the “KAP 11 mRNA expression” value is given as 0 (0; <10%) and the “Effect on KAP11 mRNA expression (in words)” value is listed as “not effective”.

Consider “YNT: tripeptide of the amino acid sequence YNT”, for which, in assay [1] (0.00001 wt. % peptide), the “Proliferation (%)” value is 0 (0: <10%). Further, the “Proliferation (%)” value in assay [1] (0.0001 wt. % peptide) is “++ (++:21-40%)”. The “Effect on Hair Germinal Matrix Cell proliferation (in words)” value in assay [1] is “effectively increase”. In the assay with KAP8, the “KAP 8 mRNA expression” value is given as “++++ (++++: >60%)” and the “Effect on Keratin Associated Protein 8 mRNA expression (in words)” value is given as “effectively increase”. In addition, in the assay with P-cadherin, the “P-cadherin mRNA expression” value is “+ (+: 11-20%)” and the “Effect on levels of desmosomal protein P-cadherin (in words)” value was “effective in boosting”. For the same substance, in the assay on Keratin35, the “Keratin 35 mRNA expression” value is on record as 0 (0; <10%). Besides, in the assay on KAP11, the “KAP 11 mRNA expression” value is on record as “++++ (++++: >60%)”.

On to “K-Ava-PVGK: K-Ava-derivative of tripeptide PVG; Ava = amino valeric acid (K[Ava]PVGK)”, for which, in assay [1] (0.00001 wt. % peptide), the “Proliferation (%)” value is listed as 0 (0: <10%). For the same substance, in assay [1] (0.0001 wt. % peptide), the “Proliferation (%)” value is 0 (0: <10%). In the assay on KAP8, the “KAP 8 mRNA expression” value was “++++ (++++: >60%)” and the “Effect on Keratin Associated Protein 8 mRNA expression (in words)” value was “effective in upregulating”. In addition, the “P-cadherin mRNA expression” value in the assay on P-cadherin is recorded as 0 (0; <10%). In the assay on Keratin35, the “Keratin 35 mRNA expression” value is on record as “+++ (+++: 41-60%)” and the “Effect on Keratin 35 mRNA expression (in words)” value is reported as “effective in upregulating”. Besides, in the assay on KAP11, the “KAP 11 mRNA expression” value was “+++ (+++: 41-60%)” and the “Effect on KAP11 mRNA expression (in words)” value was “effective in upregulating”.

On to “PVG: tripeptide of the amino acid sequence PVG”, for which the “Proliferation (%)” value in assay [1] (0.00001 wt. % peptide) is 0 (0: <10%). The “Proliferation (%)” value in assay [1] (0.0001 wt. % peptide) is given as “+ (+:11-20%)”. Moreover, the “Effect on Hair Germinal Matrix Cell proliferation (in words)” value in assay [1] is “effectively increase”. In addition, in the assay with KAP8, the “KAP 8 mRNA expression” value is “++++ (++++: >60%)” and the “Effect on Keratin Associated Protein 8 mRNA expression (in words)” value is listed as “effectively increase”. For the same substance, in the assay on P-cadherin, the “P-cadherin mRNA expression” value was 0 (0; <10%). The “Keratin 35 mRNA expression” value in the assay on Keratin35 is given as 0 (0; <10%). The “KAP 11 mRNA expression” value with KAP11 was 0 (0; <10%).
